According to US20220211603A1, “Oral Compositions And Methods Of Use” (3M INNOVATIVE PROPERTIES COMPANY, priority 2019, published 2022):

System: Streptococcus mutans (ATCC 25175) biofilm
Experiment: MBEC Biofilm Disruption Assay
Assay type: cell-based
Details: glucosamine HCl combined with MEGA-9 in water
Text: In some embodiments, disclosed compositions can prevent, inhibit, disrupt the formation or maintenance of a biofilm in an area contacted with the composition. The area contacted can be in vivo or in vitro. In some embodiments, a composition can prevent, inhibit, disrupt the formation or maintenance of a biofilm in a mouth of a user where the composition was applied to the mouth, for example via spraying the composition into the mouth when compared to a mouth without the composition applied thereto. […] Preventing, inhibiting, disrupting, or some combination thereof the formation or maintenance of biofilms can be measured using a modified version of the MBEC assay (described in ASTM […]-12), which measures disruption of Streptococcus mutans biofilms grown on special pegs in a microtiter plate. […] The biofilm remaining on each peg following treatment is quantified by measuring the amount of fluorescently labeled bacteria that eluted from the pegs at the end of the treatment cycles (see example). […] Decreasing plaque buildup can be measured by a variety of methods in vivo including for example plaque scoring, dyeing of plaque, etc. […] Control wells for fluorescence readings were also filled with 150 microliter of phosphate-buffered saline (PBS) or non-bacteria-containing media consisting of BHI with 1% sucrose and 1 micromolar ALEXA FLUOR 488 dextran. […]

SMILES: Cl.N[C@H]1C(O)O[C@H](CO)[C@@H](O)[C@@H]1O (stereo partly shown) [Glucosamine HCl]
- effect on biofilm disruption of MEGA-9 (in words): enhanced the biofilm disruption effect of MEGA-9
